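Growth conditions: 96-well plates. Treatment: test compound, 48 hours, 5 concentrations. Analysis: linear interpolation between bracketing concentrations; unreached endpoints set to highest concentration. GI50: concentration for 50% inhibition of growth.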 Calls of active or inactive are those of the source. Cut-off read from the data, not from the text of the source: active = GI50 up to about 1.1 µM and inactive = higher.
Tests used:
Test in all cases: NCI anticancer screen, dose series, 48 h
786-0 = tested on: 786-0
A498 = tested on: A498
CCRF-CEM = tested on: CCRF-CEM
HCT-116 = tested on: HCT-116
HT-29 = tested on: HT-29
IGROV-1 = tested on: IGROV-1
K562 = tested on: K562
MDA-MB-231 = tested on: MDA-MB-231
MDA-MB-435 = tested on: MDA-MB-435
MOLT-4 = tested on: MOLT-4
Malme-3M = tested on: Malme-3M
NCI-H226 = tested on: NCI-H226
NCI-H460 = tested on: NCI-H460
NCI/ADR-RES = tested on: NCI/ADR-RES
SK-MEL-28 = tested on: SK-MEL-28
SK-MEL-5 = tested on: SK-MEL-5
T47D = tested on: T47D
TK-10 = tested on: TK-10
U-251 = tested on: U-251

| SMILES | GI50 (786-0) | GI50 (A498) | GI50 (CCRF-CEM) | GI50 (HCT-116) | GI50 (HT-29) | GI50 (IGROV-1) | GI50 (K562) | GI50 (MDA-MB-231) | GI50 (MDA-MB-435) | GI50 (MOLT-4) | GI50 (Malme-3M) | GI50 (NCI-H226) | GI50 (NCI-H460) | GI50 (NCI/ADR-RES) | GI50 (SK-MEL-28) | GI50 (SK-MEL-5) | GI50 (T47D) | GI50 (TK-10) | GI50 (U-251) |
| --- | --- | --- | --- | --- | --- | --- | --- | --- | --- | --- | --- | --- | --- | --- | --- | --- | --- | --- | --- |
| COc1cc2c(cc1O)CC1c3c(cc(O)c(OC)c3-2)CCN1C (stereo not drawn) | > 100 µM (inactive) | > 100 µM (inactive) | > 100 µM (inactive) | > 78 µM (inactive) | 62.2 µM (inactive) | > 100 µM (inactive) | > 100 µM (inactive) | > 100 µM (inactive) | > 100 µM (inactive) | > 58.3 µM (inactive) | > 100 µM (inactive) | 69.7 µM (inactive) | > 100 µM (inactive) | > 100 µM (inactive) | > 100 µM (inactive) | > 89.7 µM (inactive) | > 100 µM (inactive) | > 100 µM (inactive) | > 86.1 µM (inactive) |
| C[C@H]1CCC/C=C/[C@@H]2C[C@H](OC3OC(CO)C(O)C(O)C3O)C[C@H]2[C@H](O)/C=C/C(=O)O1 (stereo partly drawn) | 36.7 µM (inactive) | 25.5 µM (inactive) | > 100 µM (inactive) | 77.8 µM (inactive) | 33.2 µM (inactive) | > 100 µM (inactive) | > 100 µM (inactive) | 20.4 µM (inactive) | 50.6 µM (inactive) | > 100 µM (inactive) | 17.8 µM (inactive) | 22.5 µM (inactive) | 78.9 µM (inactive) | 33.3 µM (inactive) | 25.1 µM (inactive) | 17.2 µM (inactive) | > 100 µM (inactive) | 91.2 µM (inactive) | 94 µM (inactive) |
| O=c1ccn(CC2(CO)CCC2)c(=O)[nH]1 | > 100 µM (inactive) | > 100 µM (inactive) | > 100 µM (inactive) | > 100 µM (inactive) | > 100 µM (inactive) | > 100 µM (inactive) | > 100 µM (inactive) | > 100 µM (inactive) | > 100 µM (inactive) | > 100 µM (inactive) | > 100 µM (inactive) | > 100 µM (inactive) | > 100 µM (inactive) | > 100 µM (inactive) | > 100 µM (inactive) | > 100 µM (inactive) | > 100 µM (inactive) | > 100 µM (inactive) | > 100 µM (inactive) |
| Cn1c(-c2cccc([N+](=O)[O-])c2)[n+](C)c2ccccc21 | > 100 µM (inactive) | > 100 µM (inactive) | > 100 µM (inactive) | > 100 µM (inactive) | 40.9 µM (inactive) | 44.4 µM (inactive) | > 100 µM (inactive) | > 100 µM (inactive) | > 100 µM (inactive) | > 100 µM (inactive) | 89.3 µM (inactive) | > 100 µM (inactive) | > 100 µM (inactive) | > 100 µM (inactive) | > 100 µM (inactive) | 76.7 µM (inactive) | > 100 µM (inactive) | > 100 µM (inactive) | > 100 µM (inactive) |
| Cc1ccc(-c2cc(-c3ccc(Cl)cc3)nc(/N=C3\C(=O)N(CN4CCOCC4)c4ccc(Cl)cc43)n2)cc1 | 22 µM (inactive) | 20.5 µM (inactive) | 20.4 µM (inactive) | 17.4 µM (inactive) | 16.3 µM (inactive) | 13 µM (inactive) | 10.5 µM (inactive) | 30 µM (inactive) | 24.4 µM (inactive) | 1.1 µM (active) | > 100 µM (inactive) | 54.1 µM (inactive) | 20.9 µM (inactive) | 22.6 µM (inactive) | 42.4 µM (inactive) | 18.1 µM (inactive) | 17.3 µM (inactive) | 26.4 µM (inactive) | 17.7 µM (inactive) |
| CSc1c(C#N)c(O)n(-c2ccc(C)cc2)c(=O)c1C(C)=O | > 100 µM (inactive) | 51.5 µM (inactive) | > 100 µM (inactive) | > 100 µM (inactive) | > 100 µM (inactive) | > 100 µM (inactive) | > 100 µM (inactive) | > 100 µM (inactive) | > 100 µM (inactive) | > 100 µM (inactive) | > 100 µM (inactive) | > 100 µM (inactive) | > 100 µM (inactive) | > 100 µM (inactive) | > 100 µM (inactive) | > 100 µM (inactive) | > 100 µM (inactive) | > 100 µM (inactive) | > 100 µM (inactive) |
| Oc1cc2c3c(c1)CCCN3CCC2 | > 10 µM (inactive) | > 10 µM (inactive) | > 10 µM (inactive) | > 10 µM (inactive) | > 10 µM (inactive) | > 10 µM (inactive) | > 10 µM (inactive) | > 10 µM (inactive) | > 10 µM (inactive) | > 10 µM (inactive) | > 10 µM (inactive) | > 10 µM (inactive) | > 10 µM (inactive) | > 10 µM (inactive) | > 10 µM (inactive) | > 10 µM (inactive) | > 10 µM (inactive) | > 10 µM (inactive) | > 10 µM (inactive) |
| COc1cc2c(cc1O)c(O)cc1c3cc(OC)c(OC)cc3c[n+](C)c21 | 7.4 µM (inactive) | > 100 µM (inactive) | 1.37 µM (inactive) | 23.1 µM (inactive) | 15.2 µM (inactive) | – | 5.04 µM (inactive) | 35.3 µM (inactive) | 16.4 µM (inactive) | 2.86 µM (inactive) | 32.9 µM (inactive) | 9.62 µM (inactive) | 15.9 µM (inactive) | > 85.9 µM (inactive) | > 100 µM (inactive) | 19 µM (inactive) | 1.45 µM (inactive) | > 100 µM (inactive) | 0.582 µM (active) |
| CN1CCN(c2cc3[nH]c(-c4ccc(Cl)cc4)nc3cc2F)CC1 | 20.1 µM (inactive) | 18.2 µM (inactive) | 13.4 µM (inactive) | 13.8 µM (inactive) | – | 15.7 µM (inactive) | 3.78 µM (inactive) | 17.4 µM (inactive) | 11.4 µM (inactive) | 10.9 µM (inactive) | 10.5 µM (inactive) | 6.81 µM (inactive) | 11.5 µM (inactive) | 21 µM (inactive) | 8.75 µM (inactive) | 10.6 µM (inactive) | 19.1 µM (inactive) | 4.37 µM (inactive) | 21.4 µM (inactive) |
| CN(C)c1ccc(C2CC(=O)CC(c3ccc(N(C)C)cc3)C23C(=O)NC(=S)NC3=O)cc1 (stereo not drawn) | 54.6 µM (inactive) | > 100 µM (inactive) | > 100 µM (inactive) | > 100 µM (inactive) | > 100 µM (inactive) | – | > 100 µM (inactive) | 36 µM (inactive) | > 100 µM (inactive) | > 100 µM (inactive) | > 100 µM (inactive) | > 100 µM (inactive) | > 100 µM (inactive) | > 100 µM (inactive) | > 100 µM (inactive) | > 100 µM (inactive) | > 100 µM (inactive) | > 100 µM (inactive) | 30.6 µM (inactive) |
| CNc1nc(C(N)=O)c(N)s1 | > 100 µM (inactive) | > 100 µM (inactive) | > 100 µM (inactive) | > 100 µM (inactive) | > 100 µM (inactive) | > 100 µM (inactive) | > 100 µM (inactive) | > 100 µM (inactive) | > 100 µM (inactive) | > 100 µM (inactive) | > 100 µM (inactive) | > 100 µM (inactive) | > 100 µM (inactive) | > 100 µM (inactive) | > 100 µM (inactive) | 84.9 µM (inactive) | > 100 µM (inactive) | > 100 µM (inactive) | > 100 µM (inactive) |
| CCC1CCC2C3CC=C4CC(OC(C)=O)C(N)CC4(C)C3CCC12C (stereo not drawn) | 2.02 µM (inactive) | 5.25 µM (inactive) | 2.47 µM (inactive) | 2.46 µM (inactive) | 2.36 µM (inactive) | 6.4 µM (inactive) | 2.05 µM (inactive) | 1.95 µM (inactive) | 2.35 µM (inactive) | 2.37 µM (inactive) | 3.49 µM (inactive) | 20.2 µM (inactive) | 1.87 µM (inactive) | 5.21 µM (inactive) | 3.66 µM (inactive) | 1.82 µM (inactive) | 5.78 µM (inactive) | 2.66 µM (inactive) | 1.86 µM (inactive) |
| COc1ccc(OC)c2c(Nc3ccc(S(=O)(=O)O)c4cc(S(=O)(=O)O)cc(S(=O)(=O)O)c34)cc(C)nc12 | > 100 µM (inactive) | > 100 µM (inactive) | > 100 µM (inactive) | > 100 µM (inactive) | > 100 µM (inactive) | > 100 µM (inactive) | > 100 µM (inactive) | > 100 µM (inactive) | > 100 µM (inactive) | > 100 µM (inactive) | > 100 µM (inactive) | > 100 µM (inactive) | > 100 µM (inactive) | > 100 µM (inactive) | > 100 µM (inactive) | > 100 µM (inactive) | > 100 µM (inactive) | > 100 µM (inactive) | > 100 µM (inactive) |
| CCCCCCCCCCCCCCCCOP(=O)(O)OP(=O)(O)OCC1OC(n2ccc(N)nc2=O)CC1O (stereo not drawn) | > 100 µM (inactive) | > 100 µM (inactive) | > 100 µM (inactive) | > 100 µM (inactive) | > 100 µM (inactive) | > 100 µM (inactive) | > 100 µM (inactive) | > 100 µM (inactive) | > 100 µM (inactive) | > 100 µM (inactive) | > 100 µM (inactive) | > 100 µM (inactive) | > 100 µM (inactive) | > 100 µM (inactive) | > 100 µM (inactive) | > 100 µM (inactive) | > 100 µM (inactive) | > 100 µM (inactive) | > 100 µM (inactive) |
